{"source": "patent US20190388365A1", "about": "“C[…] NEURO-DEGENERATIVE DISEASES AND SIDE-EFFECTS ASSOCIATED WITH COGNITION EFFECTING PHARMACEUTICALS” (priority 2015, published 2019)", "origin": "cited, not measured here", "test_system": "patients receiving morphine", "conditions": "limited clinical trials"}
{"compound": "NC(=O)C[S+]([O-])C(c1ccccc1)c1ccccc1", "note": "(racemic) [Modafinil, benzhydrylsulfinylacetamide]", "values": [{"measurement": "effect on sleepiness and confusion associated with morphine delivery", "value": "reverses the sleepiness and even confusion associated with morphine delivery"}]}
